According to US11415579B2, “Assay for measuring a rate of reaction between a target and a ligand candidate” (Imperial College Innovations Ltd., priority 2016, dated 2022):

Experiments:
Cdk2(S181C) (C177A) = target: T1, Cdk2(S181C) (C177A) (Homo sapiens, UniProt P24941, C177A/S181C); experiment: Kinetic thiol consumption assay with Cdk2 mutant S181C; assay type: binding; design: key to Rate enhancement, Cdk2 S181C: rate constant with Cdk2 ÷ rate constant with model thiol (fold); conditions: additional mutation C177A; for Rate constant with Cdk2 S181C: Protein: Cdk2, cysteine position S181C, in h^-1
T1 construct: poly-histidine; made in house; host or cells: E. coli
How it was run: (§1)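 His-tagged single-surface-cysteine Cdk2 mutants (C177A background) from E. coli, 5 μM in degassed phosphate buffer pH 8, pre-treated with immobilized TCEP beads. Fluorescence (ex/em 380/470 nm) read after 1 h at room temperature, normalized to DMSO/thiol-only control; first-order decay fits gave rate constants, divided by model-thiol rate for rate enhancement.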

Cdk2(C177A, F80C) = target: T2, Cdk2(C177A, F80C) (Homo sapiens, UniProt P24941, C177A/F80C); experiment: Kinetic thiol consumption assay with Cdk2 mutant F80C, incl. kobs versus concentration (Kd, k2); assay type: binding; design: key to Rate enhancement, Cdk2 F80C: Cdk2 rate constant divided by model-thiol rate constant; conditions: additional mutation C177A; for Rate constant with Cdk2 F80C: Protein: Cdk2, cysteine position F80C, in h^-1
T2 construct: poly-histidine; made in house; host or cells: E. coli
How it was run: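 His-tagged Cdk2(C177A/F80C) from E. coli or model thiol, 5 μM in degassed phosphate buffer pH 8 with TCEP beads, reacted with acrylamide ligands; fluorescence (ex/em 380/470 nm) normalized to DMSO control and fitted to first-order decay for kobs. Kd and k2 obtained from hyperbolic fit of kobs versus ligand concentration.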

Cdk2[C177A, F80C, K278C] = target: T3, Cdk2[C177A, F80C, K278C] (Homo sapiens, UniProt P24941, C177A/F80C/K278C); experiment: Kinetic thiol consumption assay with mutant Cdk2 as model thiol; assay type: binding; design: unit not given here; conditions: 500 μM ligand, 5 μM thiol, phosphate buffer pH 8
T3 construct: poly-histidine; made in house; host or cells: E. coli
How it was run: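 Model thiol: His-tagged human Cdk2 C177A/F80C/K278C (two engineered surface cysteines), E. coli-expressed, 5 μM in degassed phosphate buffer pH 8 with immobilized TCEP beads (2% v/v). Fluorescence (ex/em 380/470 nm) followed over time at room temperature, normalized to DMSO/thiol control. First-order decay fit gives rate constants.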

Cdk2(S276C) (C177A) = target: T4, Cdk2(S276C) (C177A) (Homo sapiens, UniProt P24941, C177A/S276C); experiment: Kinetic thiol consumption assay with Cdk2 mutant S276C; assay type: binding; design: key to Rate enhancement, Cdk2 S276C: rate constant with Cdk2 ÷ rate constant with model thiol (fold); conditions: additional mutation C177A; for Rate constant with Cdk2 S276C: Protein: Cdk2, cysteine position S276C, in h^-1
T4 construct: poly-histidine; made in house; host or cells: E. coli
How it was run: as §1

Cdk2(N272C) (C177A) = target: T5, Cdk2(N272C) (C177A) (Homo sapiens, UniProt P24941, C177A/N272C); experiment: Kinetic thiol consumption assay with Cdk2 mutant N272C; assay type: binding; design: key to Rate enhancement, Cdk2 N272: rate constant with Cdk2 ÷ rate constant with model thiol (fold); conditions: for Rate enhancement, Cdk2 N272: Cdk2 N272, additional mutation C177A; for Rate constant with Cdk2 N272C: Protein: Cdk2, cysteine position N272C, additional mutation C177A, in h^-1
T5 construct: poly-histidine; made in house; host or cells: E. coli
How it was run: as §1

Cdk2(R122C) (C177A) = target: T6, Cdk2(R122C) (C177A) (Homo sapiens, UniProt P24941, C177A/R122C); experiment: Kinetic thiol consumption assay with Cdk2 mutant R122C; assay type: binding; design: key to Rate enhancement, Cdk2 R122C: rate constant with Cdk2 ÷ rate constant with model thiol (fold); conditions: additional mutation C177A; for Rate constant with Cdk2 R122C: Protein: Cdk2, cysteine position R122C, in h-1
T6 construct: poly-histidine; made in house; host or cells: E. coli
How it was run: as §1

Cdk2(H71C) (C177A) = target: T7, Cdk2(H71C) (C177A) (Homo sapiens, UniProt P24941, C177A/H71C); experiment: Kinetic thiol consumption assay with Cdk2 mutant H71C; assay type: binding; design: key to Rate enhancement, Cdk2 H71C: rate constant with Cdk2 ÷ rate constant with model thiol (fold); conditions: additional mutation C177A; for Rate constant with Cdk2 H71C: Protein: Cdk2, cysteine position H71C, in h^-1
T7 construct: poly-histidine; made in house; host or cells: E. coli
How it was run: as §1

Cdk2(T182C) (C177A) = target: T8, Cdk2(T182C) (C177A) (Homo sapiens, UniProt P24941, C177A/T182C); experiment: Kinetic thiol consumption assay with Cdk2 mutant T182C; assay type: binding; design: key to Rate enhancement, Cdk2 T182C: rate constant with Cdk2 ÷ rate constant with model thiol (fold); conditions: additional mutation C177A; for Rate constant with Cdk2 T182C: Protein: Cdk2, cysteine position T182C, in h^-1
T8 construct: poly-histidine; made in house; host or cells: E. coli
How it was run: as §1

[1] = target: T9, human cyclin-dependent kinase 2 (Cdk2) (Homo sapiens, UniProt P24941); experiment: Kinetic thiol consumption assay with wild type Cdk2 (C177); assay type: binding; design: key to Rate enhancement, Cdk2 WT: k(Cdk2) divided by k(model thiol); Rate constant with Cdk2 (k(Cdk2)): unit not given here; conditions: for Rate constant with Cdk2 (k(Cdk2)): 500 μM ligand, 5 μM thiol, phosphate buffer pH 8; for Rate enhancement, Cdk2 WT: no additional mutations; for Rate constant with Cdk2 WT: Protein: Cdk2, cysteine position WT, in h^-1; for k(Cdk2)/k(Cdk2_mut) rate enhancement: model thiol Cdk2[C177A, F80C, K278C]; for k(Cdk2)/k(GSH) rate enhancement: model thiol glutathione
T9 construct: poly-histidine; made in house; host or cells: E. coli
How it was run: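 Thiol 5 μM (Cdk2 or model thiol), degassed phosphate buffer pH 8, TCEP beads 2% v/v. Plates incubated 1 h RT, ex/em 380/470 nm. First-order decay fit → rate constant; ratio Cdk2/model thiol = rate enhancement.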

[2] = Kinetic thiol consumption assay with model thiol glutathione; assay type: physicochemical; design: Rate constant with glutathione (k(GSH)): unit not given here; conditions: for Rate constant with glutathione (k(GSH)): 500 μM ligand, 5 μM thiol, phosphate buffer pH 8; for Rate constant with Glutathione: Protein: Glutathione, cysteine position NA, in h-1
How it was run: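 GSH 5 μM, degassed phosphate buffer pH 8, TCEP beads 2% v/v; acrylamide added; RT, 1 h; fluorescence ex/em 380/470 nm; normalized to DMSO/thiol control; k from first-order exponential decay fit.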

SMILES | Rate enhancement, Cdk2 S181C (Cdk2(S181C) (C177A)) | Rate constant with Cdk2 S181C (Cdk2(S181C) (C177A)) | Rate enhancement, Cdk2 F80C (Cdk2(C177A, F80C)) | Rate constant with Cdk2 F80C (Cdk2(C177A, F80C)) | Rate constant with Cdk2[C177A, F80C, K278C] (k(Cdk2_mut)) (Cdk2[C177A, F80C, K278C]) | Rate enhancement, Cdk2 S276C (Cdk2(S276C) (C177A)) | Rate constant with Cdk2 S276C (Cdk2(S276C) (C177A)) | Rate enhancement, Cdk2 N272 (Cdk2(N272C) (C177A)) | Rate constant with Cdk2 N272C (Cdk2(N272C) (C177A)) | Rate enhancement, Cdk2 R122C (Cdk2(R122C) (C177A)) | Rate enhancement, Cdk2 H71C (Cdk2(H71C) (C177A)) | Rate constant with Cdk2 H71C (Cdk2(H71C) (C177A)) | Rate enhancement, Cdk2 T182C (Cdk2(T182C) (C177A)) | Rate constant with Cdk2 T182C (Cdk2(T182C) (C177A)) | Rate constant with Cdk2 (k(Cdk2)) [1] | Rate enhancement, Cdk2 WT [1] | Rate constant with Cdk2 WT [1] | k(Cdk2)/k(Cdk2_mut) rate enhancement [1] | k(Cdk2)/k(GSH) rate enhancement [1] | Rate constant with glutathione (k(GSH)) [2] | other results
C=CC(=O)N1CCCN(Cc2noc(C3CC3)n2)CC1 [CA-079] | 4.96 | 0.04575 | 0.1408 | 0.001299 | 0.0021 | 0.6649 | 0.006132 | 0.4916 | 0.004534 | 0.4828 | 0.2998 | 0.002765 | 0.8366 | 0.007716 | 0.00553 | 1.018 | 0.00939 | 2.634 | 0.9328 | 0.00593 | Rate constant with Cdk2 R122C (Cdk2(R122C) (C177A)): 0.004453; Rate constant with Glutathione [2]: 0.009223
C=CC(=O)Nc1ccc(C(=O)NC2CCCC2)cc1 [EL-1114] | 0.3942 | 0.01188 | 9.237 | 0.2784 | 0.2299 | 0.7973 | 0.02403 | 0.04599 | 0.001386 | 0.259 | 3.388 | 0.1021 | 16.35 | 0.4929 | 0.07947 | 2.637 | 0.07947 | 0.3457 | 2.652 | 0.02997 | Rate constant with Cdk2 R122C (Cdk2(R122C) (C177A)): 0.007805; Rate constant with Glutathione [2]: 0.03014
C=CC(=O)Nc1nc2ccccc2n1CCc1ccccn1 [CA-144] | 0.4516 | 0.0188 | 0.4956 | 0.02063 | 0.01242 | 1.262 | 0.05252 | 2.14 | 0.08909 | 0.9491 | 8.256 | 0.3437 | 2.327 | 0.09687 | 0.04682 | 1.125 | 0.04682 | 3.77 | 1.131 | 0.0414 | Rate constant with Cdk2 R122C (Cdk2(R122C) (C177A)): 0.03951; Rate constant with Glutathione [2]: 0.04163
C=CC(=O)N1CCC2(CC1)NC(=O)N(C)C2=O [CA-046] | 0.1987 | 0.00324 | 0.1163 | 0.001897 | 0.00249 | 0.7069 | 0.01153 | 0.09295 | 0.001516 | 0.2397 | 0.07112 | 0.00116 | 0.595 | 0.009705 | 0.00343 | 0.2104 | 0.003432 | 1.377 | 0.3593 | 0.00955 | Rate constant with Cdk2 R122C (Cdk2(R122C) (C177A)): 0.00391; Rate constant with Glutathione [2]: 0.01631
C=CC(=O)NCc1ccc(C(=O)OC)cc1 [BN-65] | 0.5182 | 0.001226 | 2.644 | 0.006255 | 0.00398 | 1.179 | 0.002789 | 0.9112 | 0.002156 | 0 | 0.538 | 0.001273 | 0.8711 | 0.002061 | 0.00121 | 0.7866 | 0.001861 | 0.3031 | 0.4134 | 0.00292 | Rate constant with Glutathione [2]: 0.002366
